For 29 molecules, IC50 results are on record in patent US9999650B2, “Peptide and peptidomimetic inhibitors” (Ra Pharmaceuticals, Inc., priority 2012, dated 2018).

pIC50: −log10 of the molar value. Numbered stars: 1 amine (or outer) side, 2 acyl side, 3 side chain; on linkers, the order of the positions; unused ones are H or OH. Bridge positions count the residues as written; N and C are the ends. Square brackets hold non-standard residues; d marks the D form. Peptide text beside a SMILES is read from it. Trp(5-Cl) = N[C@@H](Cc1c[nH]c2ccc(Cl)cc12)C(=O)O; Phe(4-CH2NH2) = NCc1ccc(C[C@H](N)C(=O)O)cc1; Phe(3-Cl) = N[C@@H](Cc1cccc(Cl)c1)C(=O)O; X1 = O=C(C(N[*:1])C1CCc2ccccc2C1)[*:2]; X3 = O=C(C(Cc1ccc(Br)s1)N[*:1])[*:2]; mXylylene = c1cc(C[*:1])cc(C[*:2])c1; X2 = O=C(Cc1cccc(C[*:2])c1)[*:1]; Gly(cPr) = N[C@H](C(=O)O)C1CC1; Chg = N[C@H](C(=O)O)C1CCCCC1; Phg = N[C@H](C(=O)O)c1ccccc1; Tle = CC(C)(C)[C@H](N)C(=O)O; αMeP = C[C@@]1(C(=O)O)CCCN1; Ac5c = NC1(C(=O)O)CCCC1; Dab = NCC[C@H](N)C(=O)O; Nva = CCC[C@H](N)C(=O)O; Mpa = O=C(O)CCS; Sar = CNCC(=O)O

The assay deals with T1, human plasma kallikrein (Homo sapiens, UniProt P03952).
T1 construct: purchased Enzyme Research Laboratories HPKa 1303
T1 sequence (P03952 20-390 limits assumed): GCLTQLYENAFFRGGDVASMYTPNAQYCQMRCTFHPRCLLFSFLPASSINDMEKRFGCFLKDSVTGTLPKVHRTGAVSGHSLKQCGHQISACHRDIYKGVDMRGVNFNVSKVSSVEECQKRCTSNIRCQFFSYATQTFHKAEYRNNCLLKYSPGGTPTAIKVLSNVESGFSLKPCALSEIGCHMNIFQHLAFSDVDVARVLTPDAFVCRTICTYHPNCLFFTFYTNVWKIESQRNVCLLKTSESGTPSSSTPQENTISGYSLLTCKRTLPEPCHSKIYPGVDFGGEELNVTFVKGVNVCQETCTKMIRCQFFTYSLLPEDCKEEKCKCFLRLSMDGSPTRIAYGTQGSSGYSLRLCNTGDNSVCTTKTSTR
T1 sequence (P03952 391-638 limits assumed): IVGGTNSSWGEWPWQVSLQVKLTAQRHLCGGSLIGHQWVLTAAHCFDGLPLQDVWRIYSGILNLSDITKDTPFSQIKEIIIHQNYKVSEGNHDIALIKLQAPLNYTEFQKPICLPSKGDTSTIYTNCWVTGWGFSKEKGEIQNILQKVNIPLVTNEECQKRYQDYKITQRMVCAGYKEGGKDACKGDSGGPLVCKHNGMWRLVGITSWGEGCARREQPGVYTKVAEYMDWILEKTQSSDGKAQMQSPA
Description: Enzyme inhibition assay (fluorogenic substrate H-Pro-Phe-Arg-AMC). Type of assay: biochemical. Particulars: Kallikrein inhibitory activity; 1 nM activated human kallikrein, 500 μM H-Pro-Phe-Arg-AMC, 1 hour room temperature; read-out: Avg. IC50. The procedure: Activated human plasma kallikrein (Enzyme Research Laboratories, HPKa 1303) was reacted with H-Pro-Phe-Arg-7-amido-4-methylcoumarin (H-Pro-Pre-Arg-AMC) (a fluorogenic substrate for plasma as well as pancreatic and urinary kallikreins; Bachem I-1295) and candidate inhibitory peptides to determine the IC50 of the inhibitor.
Ten 8-fold serial dilutions of peptides (10 mM DMSO stocks) were performed in DMSO and then added to TCNB (50 mM Tris-HCl pH 7.2, 150 mM NaCl, 10 mM CaCl2, 0.05% Brij-35) and sonicated. 50 μL of the peptide dilutions were added to microtitre plates (96 well, black non-binding surface, Corning, 3650) and incubated for 5 minutes at room temperature with 4 nM activated human kallikrein (final concentration after addition of fluorogenic substrate: 1 nM). The samples were then incubated for 1 hour at room temperature with 2 mM H-Pro-Phe-Arg-AMC (final concentration 500 μM). Relative Fluorescence Units (RFU) were measured at excitation/emission 360 nm/460 nm by a SpectraMax M3.
On to `CC(C)(C)[C@H](NC(=O)[C@H](Cc1c[nH]c2ccc(Cl)cc12)NC(=O)[C@@H]1CSCc2cccc(c2)CSCCC(=O)N2CCC[C@H]2C(=O)N[C@@H](c2ccccc2)C(=O)N1)C(N)=O` [Compound R2209, [mXylyl(1,4)](des-NH2)C-P-Phg-C-5-C1-Trp-Tbg-NH2] ([Mpa]P[Phg]C[Trp(5-Cl)][Tle]-NH2; linker 1-4 via mXylylene), for which the pIC50 was below 4.12. With “Ac-WSPWTECSA-NH2 [Compound R2119, Ac-WSPWTECSA-NH2]”, the pIC50 was below 4.00. Regarding `CC(=O)N[C@H]1CSCc2cccc(c2)CSC[C@@H](C(=O)N[C@@H](CCCNC(=N)N)C(=O)N[C@H](C(N)=O)C2CC2)NC(=O)[C@H](c2ccccc2)NC(=O)[C@H](CO)NC(=O)[C@@H](C)NC1=O` [Compound R2070, [mXylyl(1,5)]Ac-C-a-S-Phg-CR-Cppg-NH2] (Ac-C[dA]S[Phg]CR[Gly(cPr)]-NH2; linker 1-5 via mXylylene), the pIC50 was 6.93.

Consider `CC(C)(C)[C@H](NC(=O)[C@H](CCCNC(=N)N)NC(=O)[C@@H]1CSCc2cccc(c2)CSCCC(=O)N2CCC[C@H]2C(=O)NC(C2CCc3ccccc3C2)C(=O)N1)C(N)=O` (some centres unmarked) [Compound R2267] ([Mpa]P[X1]CR[Tle]-NH2; linker 1-4 via mXylylene), for which the pIC50 is 7.89. On to `C[C@@H]1NC(=O)C2(CCCC2)NC(=O)CCSCc2cccc(c2)CSC[C@@H](C(=O)N[C@@H](CCCNC(=N)N)C(=O)N[C@H](C(N)=O)C(C)(C)C)NC(=O)[C@H](C2CCCCC2)NC1=O` [Compound R2169, [mXylyl(1,5)](des-NH2)C-(Cyclo-L)-A-Chg-CR-Tbg-NH2] ([Mpa][Ac5c]A[Chg]CR[Tle]-NH2; linker 1-5 via mXylylene), for which the pIC50 is 8.72. To “Ac-YWSPWTECSA-NH2 [Compound R2118, Ac-YW SPWTECSA-NH2]” belongs below 4.00; to `CC(C)(C)[C@H](NC(=O)[C@H](CCCNC(=N)N)NC(=O)[C@@H]1CSCc2cccc(c2)/C=C/CCC(=O)N2CCC[C@H]2C(=O)N[C@@H](C2CCCCC2)C(=O)N1)C(N)=O` [Compound R2260], 5.33.

With `CC[C@@H](C)[C@@H]1NC(=O)[C@@H]2CCCN2C(=O)CCCCCCCC/C=C/C[C@@H](C(=O)N[C@@H](CCCNC(=N)N)C(=O)N[C@H](C(N)=O)C(C)C)NC1=O` [Compound R2243], the pIC50 is below 4.30. Turning to `CC(C)(C)[C@H](NC(=O)[C@H](CCN)NC(=O)[C@@H]1CSCc2cccc(c2)CSCCC(=O)N2CCC[C@H]2C(=O)N[C@@H](c2ccccc2)C(=O)N1)C(N)=O` [Compound R2211, [mXylyl(1,4)](des-NH2)C-P-Phg-C-Dab-Tbg-NH2] ([Mpa]P[Phg]C[Dab][Tle]-NH2; linker 1-4 via mXylylene), the pIC50 was below 4.12. Under `CCC[C@H](N)C(=O)N[C@H]1CSCc2cccc(c2)CSC[C@@H](C(=O)N[C@@H](Cc2ccc(CN)cc2)C(=O)N[C@H](C(N)=O)C(C)C)NC(=O)[C@H]([C@@H](C)CC)NC(=O)[C@H](CO)NC(=O)[C@H](CCC(=O)O)NC1=O` [Compound R2021, [mXylyl(2,6)]Nvl-CESIC-Phe(4-CH2NH2)-V-NH2] (H-[Nva]CESIC[Phe(4-CH2NH2)]V-NH2; linker 2-6 via mXylylene) stands 5.70; under “Ac-CNYWSPWTEA-NH2 [Compound R2127, Ac-CNYWSPWTEA-NH2]”, 7.45; under `CC(C)(C)[C@H](NC(=O)[C@H](CCCNC(=N)N)NC(=O)[C@@H]1CCc2cn(nn2)CCCCCC(=O)N2CCC[C@H]2C(=O)N[C@@H](C2CCCCC2)C(=O)N1)C(N)=O` [Compound R2254], below 4.00.

As to `CN1CC(=O)N2CCC[C@H]2C(=O)N[C@@H](C2CCCCC2)C(=O)N[C@H](C(=O)N[C@@H](CCCNC(=N)N)C(=O)N[C@H](C(N)=O)C(C)(C)C)CSCc2cccc(c2)CC1=O` [Compound R2257] ([Sar]P[Chg]CR[Tle]-NH2; linker N-4 via X2), the pIC50 was 6.42. As for `CC(C)(C)[C@H](NC(=O)C(Cc1ccc(Br)s1)NC(=O)[C@@H]1CSCc2cccc(c2)CSCCC(=O)N2CCC[C@H]2C(=O)N[C@@H](c2ccccc2)C(=O)N1)C(N)=O` (some centres unmarked) [Compound R2219, [mXylyl(1,4)](des-NH2)C-P-Phg-C-ABP-Tbg-NH2] ([Mpa]P[Phg]C[X3][Tle]-NH2; linker 1-4 via mXylylene), the pIC50 was below 4.00.

Turning to `CC(C)[C@H](NC(=O)[C@H](CCCNC(=N)N)NC(=O)[C@@H]1CSCc2cccc(c2)CSCCC(=O)N2CCC[C@H]2C(=O)N[C@@H](C2CCCCC2)C(=O)N1)C(=O)O` [Compound R2183, [mXylyl(1,4)](des-NH2)C-P-Chg-CR-V-OH] ([Mpa]P[Chg]CRV-OH; linker 1-4 via mXylylene), the pIC50 is below 5.46. Under `CC(C)(C)[C@H](NC(=O)[C@H](CCCNC(=N)N)NC(=O)[C@@H]1CCCn2cc(nn2)CCCCCC(=O)N2CCC[C@H]2C(=O)N[C@@H](C2CCCCC2)C(=O)N1)C(N)=O` [Compound R2250] stands below 4.00; under `CC[C@@H](C)[C@@H]1NC(=O)CCCCCCC/C=C/C[C@@H](C(=O)N[C@@H](CCCNC(=N)N)C(=O)N[C@H](C(N)=O)C(C)C)NC1=O` [Compound R2240], below 4.12.

With `CNC(=O)[C@@H](NC(=O)[C@H](CCCNC(=N)N)NC(=O)[C@@H]1CSCc2cccc(c2)CSCCC(=O)NC2(CCCC2)C(=O)N[C@@H](C)C(=O)N[C@@H](C2CCCCC2)C(=O)N1)C(C)C` [Compound R2178, [mXylyl(1,5)](des-NH2)C-(Cyclo-L)-A-Chg-CR-V-NHCH3] ([Mpa][Ac5c]A[Chg]CRV-NHMe; linker 1-5 via mXylylene), the pIC50 was 8.49. `CC(C)(C)[C@H](NC(=O)[C@H](Cc1cccc(Cl)c1)NC(=O)[C@@H]1CSCc2cccc(c2)CSCCC(=O)N2CCC[C@H]2C(=O)N[C@@H](c2ccccc2)C(=O)N1)C(N)=O` [Compound R2207, [mXylyl(1,4)](des-NH2)C-P-Phg-C-3-Cl-Phe-Tbg-NH2] ([Mpa]P[Phg]C[Phe(3-Cl)][Tle]-NH2; linker 1-4 via mXylylene): the pIC50 was below 4.12.

For the molecule `CC[C@@H](C)[C@@H]1NC(=O)[C@@H]2CCCN2C(=O)CCCCC/C=C/C[C@@H](C(=O)N[C@@H](CCCNC(=N)N)C(=O)N[C@H](C(N)=O)C(C)C)NC1=O` [Compound R2246], the pIC50 is below 4.30.

`CC[C@@H](C)[C@@H]1NC(=O)CCCCC/C=C/C[C@@H](C(=O)N[C@@H](CCCNC(=N)N)C(=O)N[C@H](C(N)=O)C(C)C)NC1=O` [Compound R2242]: the pIC50 is below 4.00.

Regarding `CC[C@@H](C)[C@@H]1NC(=O)[C@@H]2CCCN2C(=O)CCCCCC/C=C/C[C@@H](C(=O)N[C@@H](CCCNC(=N)N)C(=O)N[C@H](C(N)=O)C(C)C)NC1=O` [Compound R2245], the pIC50 was below 4.30. For `CC(=O)N[C@H]1CSSC[C@@H](C(N)=O)NC(=O)[C@H](C)NC(=O)[C@H]([C@@H](C)O)NC(=O)[C@H](Cc2c[nH]c3ccccc23)NC(=O)[C@@H]2CCCN2C(=O)[C@H](CO)NC(=O)[C@H](Cc2c[nH]c3ccccc23)NC(=O)[C@H](Cc2ccc(O)cc2)NC(=O)[C@H](CC(N)=O)NC1=O` [Compound R2142, [cyclo(1,10)]Ac-CNYWSPWTAC-NH2] (Ac-CNYWSPWTAC-NH2; disulfide 1-10), the pIC50 was 8.57. In the case of `CCC[C@H](N)C(=O)N[C@H]1CSCc2cccc(c2)CSC[C@@H](C(=O)N[C@@H](CCCNC(=N)N)C(=O)N[C@H](C(N)=O)C(C)(C)C)NC(=O)[C@H](c2ccccc2)NC(=O)[C@H](CO)NC(=O)[C@H](CCC(=O)O)NC1=O` [Compound R2013, [mXylyl(2,6)]Nvl-CES-Phg-CR-Tbg-NH2] (H-[Nva]CES[Phg]CR[Tle]-NH2; linker 2-6 via mXylylene), the negative-log IC50 (pIC50) is 8.17. Consider `CC(C)(C)[C@H](NC(=O)[C@H](CCCNC(=N)N)NC(=O)[C@@H]1CSCc2cccc(c2)CSCCC(=O)N2CCC[C@@]2(C)C(=O)N[C@@H](C2CCCCC2)C(=O)N1)C(N)=O` [Compound R2180, [mXylyl(1,4)](des-NH2)C-(a-Me)P-Chg-CR-Tbg-NH2] ([Mpa][αMeP][Chg]CR[Tle]-NH2; linker 1-4 via mXylylene), for which the pIC50 is 8.17. To `CC(=O)N[C@H](C(=O)N[C@H]1CSCc2cccc(c2)CSC[C@@H](C(N)=O)NC(=O)[C@@H]2CCCN2C(=O)[C@H](C(C)C)NC(=O)[C@H](CCCNC(=N)N)NC1=O)C1CCCCC1` [Compound R2160, [mXylyl(2,6)]Ac-Chg-CR-V-PC-NH2] (Ac-[Chg]CRVPC-NH2; linker 2-6 via mXylylene) belongs below 4.00; to `CC[C@H](C)[C@@H]1NC(=O)[C@H](CO)NC(=O)[C@H](CCC(=O)O)NC(=O)[C@@H](NC(C)=O)CSCc2cccc(c2)CSC[C@@H](C(=O)N[C@@H](CCCNC(=N)N)C(=O)N[C@H](C(=O)N[C@@H](CC(C)C)C(=O)N[C@@H](CCCNC(=N)N)C(=O)N[C@@H](Cc2ccc(O)cc2)C(=O)N[C@@H](CO)C(N)=O)C(C)C)NC1=O` [Compound R2056, [mXylyl(1,5)]Ac-CESICRVLRYS-NH2] (Ac-CESICRVLRYS-NH2; linker 1-5 via mXylylene), 8.72. With `CC[C@H](C)[C@@H]1NC(=O)[C@H](CO)NC(=O)CSCc2cccc(c2)CSC[C@@H](C(=O)N[C@@H](CCCNC(=N)N)C(=O)N[C@H](C(N)=O)C(C)C)NC1=O` [Compound R2154, [mXylyl(1,4)](2-SAc)-SICRV-NH2], the pIC50 is below 5.10. Regarding `CC[C@H](C)[C@@H]1NC(=O)[C@H](C)NC(=O)[C@H](C)NC(=O)CCSCc2cccc(c2)CSC[C@@H](C(=O)N[C@@H](CCCNC(=N)N)C(=O)N[C@H](C(N)=O)C(C)C)NC1=O` [Compound R2072, [mXylyl(1,5)](des-NH2)C-AAICRV-NH2] ([Mpa]AAICRV-NH2; linker 1-5 via mXylylene), the pIC50 was 7.89.

Broadly, the pIC50 is the IC50 on a negative log10 scale, so that one unit is a factor of ten.
